Measurements published in patent US6534524B1, “Indazole compounds and pharmaceutical compositions for inhibiting protein kinases, and methods for their use” (Agouron Pharmaceuticals, Inc., priority 1999, dated 2003).

molecular target: unphosphorylated VEGF-R2Δ50 (FLVK) (Homo sapiens, UniProt P35968, DEL940-989/E990V); test: VEGF-R2 coupled spectrophotometric assay, unphosphorylated VEGF-R2Δ50 (FLVK); settings: FLVK Ki, Table 1
Sequence (P35968 with tags, fused parts or gaps DEL940-989/E990V limits assumed): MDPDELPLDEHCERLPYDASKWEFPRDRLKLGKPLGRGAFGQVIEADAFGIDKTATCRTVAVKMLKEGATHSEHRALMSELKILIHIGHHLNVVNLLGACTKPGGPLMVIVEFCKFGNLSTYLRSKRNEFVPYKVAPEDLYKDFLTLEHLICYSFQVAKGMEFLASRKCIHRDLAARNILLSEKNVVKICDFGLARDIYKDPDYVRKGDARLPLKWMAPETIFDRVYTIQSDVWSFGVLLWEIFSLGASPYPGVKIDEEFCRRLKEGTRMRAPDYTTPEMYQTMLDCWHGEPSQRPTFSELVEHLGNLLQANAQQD

| Structure (SMILES) | Ki |
| --- | --- |
| Nc1cccc(Oc2ccc3c(/C=C/c4ccccc4)n[nH]c3c2)c1 [Example 7, 3-(Styryl-1H-indazol-6-yloxy)-phenylamine] | 18 nM |
| C=C(c1ccccc1)c1ccc2c(/C=C/c3ccccc3)n[nH]c2c1 [Example 10, 6-(1-Phenyl-vinyl)-3-styryl-1H-indazole] | 9 nM |
| Brc1cccc(Oc2ccc3c(/C=C/c4ccccc4)n[nH]c3c2)c1 [Example 8(d), 6-(3-Bromo-phenoxy)-3-styryl-1H-indazole] | 11 nM |

molecular target: T1, human CHK1 (FL-CHK1) (Homo sapiens, UniProt O14757); test: CHK1 assay (coupled spectrophotometric, Syntide-2); assay type: biochemical; settings: Table 1; read-out: CHK-1 Ki
T1 construct: C-terminally His-tagged full-length human CHK1 (FL-CHK1); made in house; host or cells: baculovirus/insect cell system
T1 sequence (O14757 1-476): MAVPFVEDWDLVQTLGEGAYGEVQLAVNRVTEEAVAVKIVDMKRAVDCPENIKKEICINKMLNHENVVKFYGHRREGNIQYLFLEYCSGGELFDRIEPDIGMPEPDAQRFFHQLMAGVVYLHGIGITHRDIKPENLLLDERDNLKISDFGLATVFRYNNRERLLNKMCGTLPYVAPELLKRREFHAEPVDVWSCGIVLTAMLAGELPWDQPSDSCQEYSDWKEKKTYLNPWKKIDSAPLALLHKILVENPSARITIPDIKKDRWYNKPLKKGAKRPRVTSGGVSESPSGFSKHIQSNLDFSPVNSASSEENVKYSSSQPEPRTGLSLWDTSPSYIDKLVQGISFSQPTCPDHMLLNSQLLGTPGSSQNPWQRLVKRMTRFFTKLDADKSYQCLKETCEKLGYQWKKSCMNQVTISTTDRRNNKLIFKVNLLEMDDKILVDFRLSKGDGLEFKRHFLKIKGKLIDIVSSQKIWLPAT
Text: CHK1 Construct for Assay: C-terminally His-tagged full-length human CHK1 (FL-CHK1) was expressed using the baculovirus/insect cell system. […] The protein was purified by conventional chromatographic techniques.
The production of ADP from ATP that accompanies phosphoryl transfer to the synthetic substrate peptide Syntide-2 ([…]) was coupled to oxidation of NADH using phosphoenolpyruvate (PEP) through the actions of pyruvate kinase (PK) and lactic dehydrogenase (LDH). The oxidation of NADH was monitored by following the decrease of absorbance at 340 nm (ε340=6.22 cm^−1 mM^−1) using a HP8452 spectrophotometer. […] Assays were initiated with 10 nM of FL-CHK1. Ki values were determined by measuring initial enzyme activity in the presence of varying concentrations of test compounds. The data were analyzed using Enzyme Kinetic and Kaleidagraph software.

| Structure (SMILES) | Ki |
| --- | --- |
| Nc1cccc(Oc2ccc3c(/C=C/c4ccccc4)n[nH]c3c2)c1 [Example 7, 3-(Styryl-1H-indazol-6-yloxy)-phenylamine] | 1300 nM |
| O=C(c1ccccc1)c1ccc2c(/C=C/c3ccccc3)n[nH]c2c1 [Example 17, Phenyl-(3-styryl-1H-indazol-6-yl)-methanone] | 532 nM |
| C=C(c1ccccc1)c1ccc2c(/C=C/c3ccccc3)n[nH]c2c1 [Example 10, 6-(1-Phenyl-vinyl)-3-styryl-1H-indazole] | 9100 nM |
| Brc1cccc(Oc2ccc3c(/C=C/c4ccccc4)n[nH]c3c2)c1 [Example 8(d), 6-(3-Bromo-phenoxy)-3-styryl-1H-indazole] | 82000 nM |

same assay, conditions: Table 3; read-out: CHK-1 Ki

| Structure (SMILES) | Ki |
| --- | --- |
| O=C(NC1CC1)c1ccc2c(-c3nc4ccccc4[nH]3)n[nH]c2c1 [Example 53(b), 3-(1H-Benzoimidazol-2-yl)-N-cyclopropyl-1H-indazole-6-carboxamide] | 1400 nM |
| Oc1ccc(-c2ccc3c(/C=C/c4ccccc4)n[nH]c3c2)cc1 [Example 28(b)] | 14.3 nM |
| C(=C\c1n[nH]c2cc(-c3ccncc3)ccc12)/c1ccc(-c2ccccc2)cc1 [Example 29(d), 6-Pyrid-4-yl-3-E-[2-(biphenyl-4-yl)ethenyl]-1H-indazole] | 10000 nM |
| C(=C\c1n[nH]c2cc(-c3ccncc3)ccc12)/c1cccc(-c2ccccc2)c1 [Example 29(n), 6-Pyrid-4-yl-3-E-[2-(biphenyl-3-yl)ethenyl]-1H-indazole] | 16000 nM |
| C(=C\c1n[nH]c2cc(-c3ccncc3)ccc12)/c1nc2ccccc2[nH]1 [Example 29(q), 6-Pyrid-4-yl-3-E-[2-(4-benzimidazol-2-yl)ethenyl]-1H-indazole] | 11000 nM |
| C(=C\c1n[nH]c2cc(-c3ccncc3)ccc12)/c1ccc2ccccc2c1 [Example 29(k), 6-Pyrid-4-yl-3-E-[2-(naphthalen-2-yl)ethenyl]-1H-indazole] | 1300 nM |
| O=C(Nc1ccc(O)cc1)c1ccc2c(-c3nc4cc(C(F)(F)F)ccc4[nH]3)n[nH]c2c1 [Example 54(h), 3-(5-Trifluoromethyl-1H-benzoimidazol-2-yl)-N-(4-hydroxyphenyl)-1H-indazole-6-carboxamide] | 1000 nM |
| O=C(NOCc1ccccc1)c1ccc2c(-c3nc4ccccc4[nH]3)n[nH]c2c1 [Example 53(f), 3-(1H-Benzoimidazol-2-yl)-N-benzyloxy-1H-indazole-6-carboxamide] | 7300 nM |
| COc1ccc(-c2ccc3c(/C=C/c4ccccc4)n[nH]c3c2)cn1 [Example 27(k), 6-(2-Methoxypyridin-5-yl)-3-E-styryl-1H-indazole] | 24000 nM |
| O=C(Nc1ccc(O)cc1)c1ccc2c(-c3nc4cc(Cl)c(Cl)cc4[nH]3)n[nH]c2c1 [Example 54(b), 3-(5,6-Dichloro-1H-benzoimidazol-2-yl)-N-(4-hydroxyphenyl)-1H-indazole-6-carboxamide] | 3100 nM |
| O=C(Nc1ccc(O)cc1)c1ccc2c(-c3nc4cc5ccccc5cc4[nH]3)n[nH]c2c1 [Example 54(d), 3-[1H-Naphtho(2,3-d)imidazol-2-yl]-N-(4-hydroxyphenyl)-1H-indazole-6-carboxamide] | 680 nM |
| O=C(Nc1ccc(O)c(F)c1)c1ccc2c(-c3nc4ccccc4[nH]3)n[nH]c2c1 [Example 53(g), 3-(1H-Benzoimidazol-2-yl)-N-(3-fluoro-4-hydroxyphenyl)-1H-indazole-6-carboxamide] | 1500 nM |
| O=C(Nc1ccc(O)cc1)c1ccc2c(-c3nc4cc(Cl)ccc4[nH]3)n[nH]c2c1 [Example 54(l), 3-(5-Chloro-1H-benzoimidazol-2-yl)-N-(4-hydroxyphenyl)-1H-indazole-6-carboxamide] | 990 nM |
| c1ccc2[nH]c(-c3n[nH]c4cc(-c5ccncc5)ccc34)nc2c1 [Example 55, 3-1H-Benzoimidazol-2-yl-6-pyridin-4-yl-1H-indazole] | 10000 nM |
| Oc1ccc(-c2ccc3c(/C=C/c4ccccc4)n[nH]c3c2)cc1O [Example 28(d), 6-(3,4-Dihydroxyphenyl)-3-E-styryl-1H-indazole] | 18 nM |
| Fc1cc(F)cc(/C=C/c2n[nH]c3cc(-c4ccncc4)ccc23)c1 [Example 29(m), 6-Pyrid-4-yl-3-E-[2-(3,5-difluorophenyl)ethenyl]-1H-indazole] | 1000 nM |
| Cc1ccc2[nH]c(-c3n[nH]c4cc(C(=O)Nc5ccc(O)cc5)ccc34)nc2c1C [Example 54(f), 3-(4,5-Dimethyl-1H-benzoimidazol-2-yl)-N-(4-hydroxyphenyl)-1H-indazole-6-carboxamide] | 2900 nM |
| Fc1cccc(F)c1/C=C/c1n[nH]c2cc(-c3ccncc3)ccc12 [Example 29(o), 6-Pyrid-4-yl-3-E-[2-(2,6-difluorophenyl)ethenyl]-1H-indazole] | 46000 nM |
| C(=C\c1n[nH]c2cc(-c3cccc4[nH]ccc34)ccc12)/c1ccccc1 [Example 27(g), 6-Indol-4-yl-3-E-styryl-1H-indazole] | 850 nM |
| C(=C\c1n[nH]c2cc(-c3ccncc3)ccc12)/c1ccc[nH]1 [Example 29(t), 6-Pyrid-4-yl-3-E-[2-(1H-pyrrol-2-yl)ethenyl]-1H-indazole] | 72 nM |
| Cc1nc(/C=C/c2n[nH]c3cc(-c4ccncc4)ccc23)cs1 [29(j), 6-Pyrid-4-yl-3-E-[2-(2-methylthiazol-4-yl)ethenyl]-1H-indazole] | 533 nM |

same assay, conditions: Table 4; compound at 20 μM

| Structure (SMILES) | CHK-1 @ 20 μM |
| --- | --- |
| O=C(Nc1cc[nH]n1)c1ccc2c(-c3nc4ccccc4[nH]3)n[nH]c2c1 | 52.4 |
| O=C(Nc1cc(O)[nH]n1)c1ccc2c(-c3nc4ccccc4[nH]3)n[nH]c2c1 | 38.6 |
| O=C(Nc1ncnc2[nH]cnc12)c1ccc2c(-c3nc4ccccc4[nH]3)n[nH]c2c1 [drawing 1250] | 38.6 |
| O=C(NC1CCS(=O)(=O)C1)c1ccc2c(-c3nc4ccccc4[nH]3)n[nH]c2c1 (stereo not drawn) [drawing 1226] | 24.2 |
| O=C(Nc1ccc2[nH]c(=O)[nH]c2c1)c1ccc2c(-c3nc4ccccc4[nH]3)n[nH]c2c1 [drawing 1232] | 32.3 |
| COc1ccc(NC(=O)c2ccc3c(-c4nc5ccccc5[nH]4)n[nH]c3c2)cc1O [drawing 1257] | 32.3 |
| O=C(Nc1cnccn1)c1ccc2c(-c3nc4ccccc4[nH]3)n[nH]c2c1 [drawing 1245] | 36.3 |
| COC(=O)c1ccc(NC(=O)c2ccc3c(-c4nc5ccccc5[nH]4)n[nH]c3c2)o1 [drawing 1258] | 42.9 |
| COC(=O)c1cc(NC(=O)c2ccc3c(-c4nc5ccccc5[nH]4)n[nH]c3c2)ccc1O [drawing 1260] | 31.6 |
| C=CCC(NC(=O)c1ccc2c(-c3nc4ccccc4[nH]3)n[nH]c2c1)c1ccccn1 (stereo not drawn) [drawing 1259] | 24.1 |

molecular target: CDK4/Cyclin D3 complex (Homo sapiens, UniProt P11802); test: CDK4/Cyclin D assay ([32P]ATP, Rb fragment); settings: not given
Sequence (P11802 whole entry, the tested form may be a part): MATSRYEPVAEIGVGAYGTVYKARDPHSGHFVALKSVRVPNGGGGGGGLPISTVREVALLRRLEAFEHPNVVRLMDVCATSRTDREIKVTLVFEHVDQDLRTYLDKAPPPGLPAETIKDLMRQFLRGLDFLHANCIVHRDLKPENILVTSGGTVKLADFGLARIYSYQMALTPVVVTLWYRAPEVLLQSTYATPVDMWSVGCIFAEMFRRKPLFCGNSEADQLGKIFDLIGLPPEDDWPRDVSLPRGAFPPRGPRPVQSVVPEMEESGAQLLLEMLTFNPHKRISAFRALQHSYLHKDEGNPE
Sequence (P30281 whole entry partner, the tested form may be a part): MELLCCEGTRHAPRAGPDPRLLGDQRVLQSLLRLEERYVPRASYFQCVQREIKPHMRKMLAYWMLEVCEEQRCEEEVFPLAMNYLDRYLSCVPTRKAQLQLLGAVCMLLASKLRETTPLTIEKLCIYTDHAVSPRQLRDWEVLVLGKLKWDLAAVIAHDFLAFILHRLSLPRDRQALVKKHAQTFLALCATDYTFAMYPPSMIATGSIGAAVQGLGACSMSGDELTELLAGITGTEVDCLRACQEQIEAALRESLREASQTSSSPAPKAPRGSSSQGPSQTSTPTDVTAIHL

| Structure (SMILES) | Ki |
| --- | --- |
| COc1cc(O)ccc1-c1ccc2c(-c3ncc[nH]3)n[nH]c2c1 [Example 25(e), 3-Imdazol-2-yl-6-(2-methoxy-4-hydroxyphenyl)-1H-indazole] | 181 nM |
| Cc1cc(O)ccc1-c1ccc2c(-c3nc4ccccc4[nH]3)n[nH]c2c1 [Example 24(b), 4-[3-(1-H-Benzoimidazol-2-yl)-1-H-indazol-6-yl]-3-methyl-phenol] | 3.2 nM |
| COc1cc(O)ccc1-c1ccc2c(-c3nc4cc(N(C)C)ccc4[nH]3)n[nH]c2c1 [Example 25(h), 3-(5-Dimethylamino-1H-benzoimidazol-2-yl)-6-(2-methoxy-4-hydroxy-phenyl)-1H-indazole] | 24 nM |
| COCCc1cc(O)ccc1-c1ccc2c(-c3nc4ccccc4[nH]3)n[nH]c2c1 [Example 24(h), 3-1H-Benzoimidazol-2-yl-6-(2-(2-methoxyethyl)-4-hydroxyphenyl)-1H-indazole] | 53 nM |
| COc1cc(O)ccc1-c1ccc2c(-c3nc4ccc(C(=O)NCCN5CCOCC5)cc4[nH]3)n[nH]c2c1 [Example 25(b), 3-[6-(2-Morpholin-4-yl-ethylcarbamoyl)-1H-benzoimidazol-2-yl]-6-(2-methoxy-4-hydroxyphenyl)-1H-indazole] | 48 nM |
| Oc1cccc(-c2ccc3c(-c4nc5ccccc5[nH]4)n[nH]c3c2)c1 [Example 24(o), 3-1H-Benzoimidazol-2-yl-6-(3-hydroxyphenyl)-1H-indazole] | 200 nM |
| COc1cc(O)ccc1-c1ccc2c(-c3nc4ccc(N5CCN(C)CC5)cc4[nH]3)n[nH]c2c1 [Example 25(c), 3-[6-(4-Methylpiperazin-1-yl)-1H-benzoimidazol-2-yl]-6-(2-methoxy-4-hydroxyphenyl)-1H-indazole] | 15.5 nM |

molecular target: CDK2/Cyclin A (Homo sapiens, UniProt P24941); test: CDK2/Cyclin A assay ([32P]ATP, Rb fragment); assay type: biochemical; settings: Table 2

| Structure (SMILES) | Ki |
| --- | --- |
| COc1cc(O)ccc1-c1ccc2c(-c3nc4cc(N(C)C)ccc4[nH]3)n[nH]c2c1 [Example 25(h), 3-(5-Dimethylamino-1H-benzoimidazol-2-yl)-6-(2-methoxy-4-hydroxy-phenyl)-1H-indazole] | 170 nM |
| COCCc1cc(O)ccc1-c1ccc2c(-c3nc4ccccc4[nH]3)n[nH]c2c1 [Example 24(h), 3-1H-Benzoimidazol-2-yl-6-(2-(2-methoxyethyl)-4-hydroxyphenyl)-1H-indazole] | 54 nM |
| Oc1cccc(-c2ccc3c(-c4nc5ccccc5[nH]4)n[nH]c3c2)c1 [Example 24(o), 3-1H-Benzoimidazol-2-yl-6-(3-hydroxyphenyl)-1H-indazole] | 29 nM |
